Values of other authors, collected in patent US9212386B2, “Enzymatic cleavage based lateral flow assays” (Rapid Pathogen Screening, Inc., priority 2011, dated 2015).
*: point of attachment. FITC = O=C1OC2(c3ccc(O)cc3Oc3cc(O)ccc32)c2ccc(NC(=S)*)cc21; Ahx = NCCCCCC(=O)O

Columns and labels:
[1] = test system: Bacterial Enzyme Targets (tested micro-organisms); details: micro-organisms whose enzymes cleave the peptide
[2] = test system: Bacterial Enzyme Targets (bacterial supernatants of tested micro-organisms); details: for In vitro Cleavage Activity (using FRET): micro-organisms whose enzymes cleave the peptide

Substance | Ex vivo Cleavage activity (using FRET) [1] | In vitro Cleavage Activity (using FRET) [2] | selectivity of peptide cleavage [2]
FITC-Ahx-Gly-Gly-Gly-Gly-Lys-DABCYL ({FITC-Ahx}-GGGGK-{DABCYL}) | P. aeruginosa | P. aeruginosa | 
FITC-Ahx-Leu-DLeu-Lys-DABCYL [BikKam 1] |  | B. anthracis | highly selective for B. anthracis
FITC-Ahx-Leu-DVal-Lys-DABCYL [BikKam 6] |  | B. anthracis (moderate) | 
